According to patent publication EP1712231A2 (priority 1998, dated 2000):
Marks after values point to notes of the source that are not given here.

Experiments:
[1] = Table 1: tipranavir drug-drug interaction potential and routes of elimination of antiretrovirals; conditions: drug-drug interaction with tipranavir
[2] = Example 4: pharmacokinetic drug-drug interaction of tipranavir SEDDS 1250 mg BID and ritonavir oral solution 200 mg BID; assay type: in vivo, human
[3] = Study 2: pharmacokinetic drug-drug interaction of tipranavir 600 or 900 mg BID and ritonavir 100-500 mg BID, plasma levels by HPLC; assay type: in vivo, human; conditions: for CLPO / Cmin / Css / AUC / Cmax / Tmax: median (range); for half-life / AUC / Cmax / Tmax: both sexes, human, plasma, oral; for half-life: harmonic mean (range), read-out: t½ (converted)
Experimental: Both groups received their assigned dose of tipranavir continuously throughout the study period. […] The pharmacokinetics of tipranavir when coadministered with ritonavir were evaluated and compared with baseline data, while the ritonavir data were compared to historical data. The study was conducted in 19 healthy volunteers (16 males and 3 females) with a mean age of 30 years (range, 19-52 years), height of 177.1 cm (range, 162.6-190.5 cm), and weight of 76.7 kg (range, 57.3-95.0 kg). Eighteen subjects were Caucasian […]. […] Pharmacokinetic analyses were based on those subjects completing the baseline evaluation and at least one period of concomitant drug administration. […] Detection was by UV absorbance at 260 nm. […] Ritonavir and the internal standard (IS) were extracted from human plasma by liquid-liquid extraction with an ethyl acetate mixture.

[4] = Study 1: pharmacokinetic drug-drug interaction of tipranavir 1350 mg BID and ritonavir 500 mg BID, plasma levels by HPLC; assay type: in vivo, human; conditions: for CLPO / Cmin / Css: median (range)
Excerpt: Twelve subjects were Caucasian and two were of African descent. Ten subjects completed all aspects of the study. Pharmacokinetic analyses were based on the results obtained in these subjects. […] Detection was by UV absorbance at 260 nm. […] Ritonavir and the internal standard (IS) were extracted from human plasma by liquid-liquid extraction with an ethyl acetate mixture.

[5] = Ritonavir Oral Solution 200mg BID + Tipranavir SEDDS SEC 1250mg BID, median (range), N=21
[6] = ritonavir 200 mg BID + tipranavir 1250 mg BID vs 500-mg twice-daily ritonavir alone
[7] = Ritonavir 500 mg BID + Tipranavir 600 mg BID, N=7
[8] = Ritonavir 500 mg BID + Tipranavir 900 mg BID, N=6
[9] = ritonavir 500 mg BID + tipranavir 600 or 900 mg BID vs ritonavir alone
[10] = Ritonavir 500 mg BID + Tipranavir 1350 mg BID, n=10
[11] = Ritonavir 500 mg BID alone, steady state, n=10
[12] = ritonavir 500 mg BID + tipranavir 1350 mg BID vs ritonavir alone

Cc1cn([C@H]2C[C@H](N=[N+]=[N-])[C@@H](CO)O2)c(=O)[nH]c1=O [AZT, zidovudine]
Potential for Clinically Significant Interaction [1]: Low

Nc1nc(NC2CC2)c2ncn([C@H]3C=C[C@@H](CO)C3)c2n1 [Abacavir]
Potential for Clinically Significant Interaction [1]: Low

CC(C)CN(C[C@@H](O)[C@H](Cc1ccccc1)NC(=O)O[C@H]1CCOC1)S(=O)(=O)c1ccc(N)cc1 [Amprenavir]
Potential for Clinically Significant Interaction [1]: High (and unfavorable)

O=C1Nc2ccc(Cl)cc2[C@@](C#CC2CC2)(C(F)(F)F)O1 [Efavirenz]
Potential for Clinically Significant Interaction [1]: Uncertain (Efavirenz is a possible CYP3A inducer)

CC(C)(C)NC(=O)[C@@H]1CN(Cc2cccnc2)CCN1C[C@@H](O)C[C@@H](Cc1ccccc1)C(=O)N[C@H]1c2ccccc2C[C@H]1O [Indinavir]
Potential for Clinically Significant Interaction [1]: High (and unfavorable)

Cc1c(O)cccc1C(=O)N[C@@H](CSc1ccccc1)[C@H](O)CN1C[C@H]2CCCC[C@H]2C[C@H]1C(=O)NC(C)(C)C [Nelfinavir]
Potential for Clinically Significant Interaction [1]: High (and unfavorable)

Cc1ccnc2c1NC(=O)c1cccnc1N2C1CC1 [Nevirapine]
Potential for Clinically Significant Interaction [1]: Uncertain

C[C@H](Sc1nc(N)cc(Cl)n1)c1cc2ccoc2cn1 [PNU-142721]
Potential for Clinically Significant Interaction [1]: Uncertain

CC(C)c1nc(CN(C)C(=O)N[C@H](C(=O)N[C@@H](Cc2ccccc2)C[C@H](O)[C@H](Cc2ccccc2)NC(=O)OCc2cncs2)C(C)C)cs1 [Ritonavir, (2S,3S,5S)-5(N-(N-((N-Methyl-N-((2-isopropyl-4-thiazoly)methyl)amino)carbonyl)-L-valinyl)amino)-2-(N-((5-thiazoly)methoxycarbonyl)amino)-1,6-diphenyl-3-hydroxhexane, reference compound]
Potential for Clinically Significant Interaction [1]: High (possibly favorable) (Ritonavir increases trough tipranavir concentrations; tipranavir expected to reduce ritonavir concentrations
CLPO [2, 5]: 25.1 (8.4-73.1)* L/h
Cmin [2, 5]: 0.035 (0.000-0.341)* µg/mL
Css [2, 5]: 0.67 (0.23-1.99)* µg/mL
apparent elimination half-life of ritonavir relative to ritonavir given alone ([2]; ritonavir 200 mg BID + tipranavir 1250 mg BID): decreased
median ritonavir AUC, fold lower [2, 6]: 12 fold
median ritonavir Cmax, fold lower [2, 6]: 10 fold
median ritonavir Cmin, fold lower [2, 6]: 54 fold
CLPO [3, 7]: 19 (11-31) L/h
Cmin [3, 7]: 0.15 (0.08-0.53) µg/mL
Css [3, 7]: 2.3 (1.4-3.7) µg/mL
CLPO [3, 8]: 19 (12-27) L/h
Cmin [3, 8]: 0.15 (0.09-0.62) µg/mL
Css [3, 8]: 1.9 (1.6-3.4) µg/mL
half-life [3, 7]: 1.8 h
AUC [3, 7]: 27000 ng·h/mL
Cmax [3, 7]: 7000 ng/mL
Tmax [3, 7]: 3 h
half-life [3, 8]: 1.8 h
AUC [3, 8]: 26000 ng·h/mL
Cmax [3, 8]: 5800 ng/mL
Tmax [3, 8]: 3 h
decrease in steady-state plasma ritonavir concentrations [3, 9]: ~4 fold
median ritonavir Cmax values, fold lower [3, 9]: more than 2 fold
median ritonavir Cmin values, fold lower [3, 9]: more than 10 fold
CLPO [4, 10]: 26 (17-61) L/h
Cmin [4, 10]: 0.10 (0.04-0.29) µg/mL
Css [4, 10]: 1.6 (0.69-2.50) µg/mL
t½ ([4]; Ritonavir 500 mg BID alone, harmonic mean (range), n=10): 2.9 (2.6-4.4) h
CLPO [4, 11]: 5.1 (3.9-7.8) L/h
Cmin [4, 11]: 1.9 (1.0-3.9) µg/mL
Css [4, 11]: 8.4 (5.3-10.7) µg/mL
half-life ([4]; both sexes, human, plasma, oral, 500 mg, read-out: t½ (converted)): 2.9 h
decrease in mean steady-state ritonavir concentrations [4, 12]: ~5 fold
decrease of median ritonavir Cmax value [4, 12]: 3.8 fold
median ritonavir Cmin concentration, fold lower [4, 12]: more than 10 fold

Nc1ccn([C@H]2CC[C@@H](CO)O2)c(=O)n1 [ddC]
Potential for Clinically Significant Interaction [1]: Low

O=c1[nH]cnc2c1ncn2[C@H]1CC[C@@H](CO)O1 [ddI]
Potential for Clinically Significant Interaction [1]: Low
